Experimental data as given in patent US9090610B2, “Fluoroalkyl-substituted pyrazolopyridines and use thereof” (BAYER INTELLECTUAL PROPERTY GMBH, priority 2011, dated 2015).

Assays:
[1] = system: recombinant guanylate cyclase reporter cell line; assay: Effect on a recombinant guanylate cyclase reporter cell line; type: cell-based; conditions: recombinant guanylate cyclase reporter cell line (Wunder et al. 2005); read-out: MEC (minimum effective concentration)
Description: B-2. Effect on a Recombinant Guanylate Cyclase Reporter Cell Line
The cellular activity of the compounds according to the invention is determined using a recombinant guanylate cyclase reporter cell line, as described in F. Wunder et al., Anal. Biochem. 339, 104-112 (2005).

rabbit aorta rings = assay: Vasorelaxant action in vitro (phenylephrine-contracted rabbit aortic rings); conditions: Oryctolagus cuniculus, phenylephrine-induced contraction, organ bath 37° C., 0.1% DMSO, read-out: IC50 (concentration needed to reduce the magnitude of the control contraction by 50%)
Description: B-1. Vasorelaxant Action In Vitro
Rabbits are stunned by a blow to the neck and exsanguinated. The aorta is removed, freed from adhering tissue and divided into rings of a width of 1.5 mm. The rings are placed individually under an initial tension in 5 ml organ baths with Krebs-Henseleit solution which is at 37° C., is gassed with carbogen and has the following composition (in each case mM): sodium chloride: 119; potassium chloride: 4.8; calcium chloride dihydrate: 1; magnesium sulfate heptahydrate: 1.4; potassium dihydrogenphosphate: 1.2; sodium bicarbonate: 25; glucose: 10. The contractile force is determined with Statham UC2 cells, amplified and digitalized using A/D transducers (DAS-1802 HC, Keithley Instruments Munich), and recorded in parallel on linear recorders. To obtain a contraction, phenylephrine is added to the bath cumulatively in increasing concentration. After several control cycles, the substance to be investigated is added in each further run in increasing dosage in each case, and the height of the contraction achieved is compared with the height of the contraction reached in the last preceding run. This is used to calculate the concentration needed to reduce the magnitude of the control value by 50% ([…]). The standard administration volume is 5 μl; the DMSO content in the bath solution corresponds to 0.1%.

| SMILES | IC50 (rabbit aorta rings) [µM] | minimal effective concentration [1] [µM] |
| --- | --- | --- |
| CC1(C)C(=O)Nc2nc(-c3nn(CCC(F)(F)C(F)(F)F)c4ncccc34)nnc21 [Example 1, 7,7-Dimethyl-3-[1-(3,3,4,4,4-pentafluorobutyl)-1H-pyrazolo[3,4-b]pyridin-3-yl]-5,7-dihydro-6H-pyrrolo[2,3-e][1,2,4]triazin-6-one] | 0.263 | 0.3 |
| CC1(C)C(=O)Nc2nc(-c3nn(CCC(F)(F)C(F)(F)F)c4ncc(F)cc34)nnc21 [Example 2, 3-[5-Fluoro-1-(3,3,4,4,4-pentafluorobutyl)-1H-pyrazolo[3,4-b]pyridin-3-yl]-7,7-dimethyl-5,7-dihydro-6H-pyrrolo[2,3-e][1,2,4]triazin-6-one] | 0.129 | 0.1 |
| CC1(C)C(=O)Nc2nc(-c3nn(CCC(F)(F)C(F)F)c4ncc(F)cc34)nnc21 [Example 7, 3-[5-Fluoro-1-(3,3,4,4-tetrafluorobutyl)-1H-pyrazolo[3,4-b]pyridin-3-yl]-7,7-dimethyl-5,7-dihydro-6H-pyrrolo[2,3-e][1,2,4]triazin-6-one] | – | 0.3 |
| CC1(C)C(=O)Nc2nc(-c3nn(CC4CC(F)(F)C4)c4ncc(F)cc34)nnc21 [Example 8, 3-{1-[(3,3-Difluorocyclobutyl)methyl]-5-fluoro-1H-pyrazolo[3,4-b]pyridin-3-yl}-7,7-dimethyl-5,7-dihydro-6H-pyrrolo[2,3-e][1,2,4]triazin-6-one] | – | 3 |

The next lines start with results.

| IC50 (rabbit aorta rings) [µM] | SMILES | minimal effective concentration [1] [µM] |
| --- | --- | --- |
| 0.046 | CC1(C)C(=O)Nc2nc(-c3nn(CCC(F)(F)C(F)(F)F)c4ncccc34)ncc21 [Example 3, 5,5-Dimethyl-2-[1-(3,3,4,4,4-pentafluorobutyl)-1H-pyrazolo[3,4-b]pyridin-3-yl]-5,7-dihydro-6H-pyrrolo[2,3-d]pyrimidin-6-one] | 0.03 |
| 0.101 | CC1(C)C(=O)Nc2nc(-c3nn(CCC(F)(F)C(F)(F)F)c4ncc(F)cc34)ncc21 [Example 4, 2-[5-Fluoro-1-(3,3,4,4,4-pentafluorobutyl)-1H-pyrazolo[3,4-b]pyridin-3-yl]-5,5-dimethyl-5,7-dihydro-6H-pyrrolo[2,3-d]pyrimidin-6-one] | 0.03 |
| 0.023 | CC1(C)C(=O)Nc2nc(-c3nn(CC4CCCC4)c4ncc(F)cc34)ncc21 [Example 5, 2-[1-(Cyclopentylmethyl)-5-fluoro-1H-pyrazolo[3,4-b]pyridin-3-yl]-5,5-dimethyl-5,7-dihydro-6H-pyrrolo[2,3-d]pyrimidin-6-one] | 0.1 |
| 0.102 | CC1(C)C(=O)Nc2nc(-c3nn(CC4CCCC4)c4ncc(F)cc34)nnc21 [Example 6, 3-[1-(Cyclopentylmethyl)-5-fluoro-1H-pyrazolo[3,4-b]pyridin-3-yl]-7,7-dimethyl-5,7-dihydro-6H-pyrrolo[2,3-e][1,2,4]triazin-6-one] | 0.1 |
